Results: patent US10280416B1, “Magnetic ionic liquids, methods of making and uses thereof as solvents in the extraction and preservation of nucleic acids” (The University of Toledo, priority 2015, dated 2019)

How the values were obtained:
[1] = solubility of MILs in water; assay type: physicochemical
From the text: Independent of the substituent functional groups imparted by the quaternization reaction, MILs 1-3 were immiscible with water at compositions as low as 0.1% (w/v) MIL. The hydrophobic properties of the monocationic MILs are thus useful for applications such as aqueous liquid-liquid microextractions, where extremely low phase ratios of extraction solvent are employed.

[2] = effective magnetic moment, Evans magnetic susceptibility balance; assay type: physicochemical; settings: measured at 295K
From the text: The paramagnetic properties of MILs provide a unique advantage over conventional ILs by permitting control over substrate motion through the application of an external magnetic field. […] The general expression for molar magnetic susceptibility using the Evans balance is shown in eq 1:
[formula] where XM represents the molar magnetic susceptibility, Cbal is the balance calibration constant, L corresponds to the length of the sample in the tube, M is the molecular weight of the compound being measured, R is the instrument reading for the sample in the tube, Ro is the instrument reading for the empty sample tube, and m is the mass of sample introduced into the Evan's balance. From XM, it is possible to calculate μeff according to eq 2: μeff=2.83√{square root over (XMT)} (2) where T is the absolute temperature. […] In order to increase the magnetic susceptibility of MILs, multiple paramagnetic iron(III) centers were incorporated into the MIL structure. […] The iron(III)-based MILs represent an inexpensive and useful alternative to MILs based on lanthanides, such as Dy(III) (μeff=10.6 μB). Moreover, the higher response of MILs 10 and 11 toward magnetic fields enables the use of smaller magnets with lower field strength for their manipulation in solution, which is useful in miniaturized magnet-based systems.

[3] = molecular target: T1, albumin from chicken egg white (Gallus gallus, UniProt P01012); test: MIL-based DDE, coextraction of protein from stDNA/albumin matrix; settings: pH 4.4; albumin 3.4 μM, stDNA 4.17 nM
T1 construct: albumin from chicken egg white; purchased Sigma-Aldrich (St. Louis, Mo., USA); host or cells: chicken egg white (natural source)
T1 sequence (P01012 1-386): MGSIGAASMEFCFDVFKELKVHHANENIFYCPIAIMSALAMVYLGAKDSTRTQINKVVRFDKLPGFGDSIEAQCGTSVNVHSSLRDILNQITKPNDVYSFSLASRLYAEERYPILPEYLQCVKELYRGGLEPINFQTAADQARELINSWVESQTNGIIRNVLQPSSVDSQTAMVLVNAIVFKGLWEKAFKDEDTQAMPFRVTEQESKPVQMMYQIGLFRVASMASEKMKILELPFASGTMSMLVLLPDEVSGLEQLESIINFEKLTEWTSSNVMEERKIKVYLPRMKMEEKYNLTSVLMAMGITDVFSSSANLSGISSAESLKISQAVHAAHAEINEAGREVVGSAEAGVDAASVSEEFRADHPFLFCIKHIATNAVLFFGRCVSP
Protocol: High performance liquid chromatography with UV detection was performed on a LC-20A liquid chromatograph (Shimadzu, Japan) consisting of two LC-20AT pumps, a SPD-20 UV/vis detector, and a DGU-20A3 degasser. Chromatographic separations were performed on a 35 mm×4.6 mm i.d.×2.5 μm TSKgel DEAE-NPR anion exchange column with a 5 mm×4.6 mm i.d.×5 μm TSKgel DEAE-NPR guard column from Tosoh Bioscience (King of Prussia, Pa.). The column was equilibrated with a mobile phase composition of 50:50 (A) 20 mM Tris-HCl (pH 8), and (B) 1 M NaCl/20 mM Tris-HCl (pH 8). For stDNA analysis, gradient elution was performed beginning with 50% mobile phase B and increased to 100% B over 10 min. In the separation of ssDNA as well as DNA and albumin, the column was first equilibrated with 20 mM Tris-HCl followed by gradient elution from 0% to 50% B over 10 min and then 50% to 100% B over 5 min. A flow rate of 1 mL min−1 was used for all HPLC separations. DNA and albumin were detected at 260 and 280 nm, respectively.
Sample matrices containing either metal ions or protein (albumin) were prepared from stock solutions. A sample solution containing 388 mM NaCl, 153 mM KCl, 38.1 mM CaCl2.2H2O, 28.3 mM MgCl2.6H2O, and 4.17 nM stDNA was extracted in triplicate using MIL-based DDE for all three MILs. For experiments involving protein as a matrix component, the samples were prepared at an albumin concentration of 3.4 μM and stDNA concentration of 4.17 nM with the pH varied from 3.5 to 8.

[4] = solubility of MILs in hexanes; assay type: physicochemical
[5] = thermal stability by thermal gravimetric analysis (TGA); settings: temperature at which 5 wt % loss of MIL is observed

| Compound | solubility in water [1] | μeff (effective magnetic moment) [2] [μB] | albumin extraction efficiency [3] [%] | solubility in hexanes [4] | thermal stability [5] [°C] |
| --- | --- | --- | --- | --- | --- |
| CCCCCCCC[N+](CCCCCCCC)(CCCCCCCC)Cc1cccc(OC)c1.[Cl][Fe-]([Cl])([Cl])[Br] [MIL 2] | I^d (Insoluble at 0.1% (w/v)) | 5.60 |  |  |  |
| CCCCCCCC[N+](CCCCCCCC)(CCCCCCCC)Cc1ccc(C(C)(C)C)cc1.[Cl][Fe-]([Cl])([Cl])[Br] [MIL 3] | I^d (Insoluble at 0.1% (w/v)) | 5.68 |  |  |  |
| CCCCCCCCCCCCCCCCn1cc[n+](CCCCCCCCCCCC[n+]2ccn(CCCCCCCCCCCCCCCC)c2C)c1C.O=S(=O)([N-]S(=O)(=O)C(F)(F)F)C(F)(F)F.[Cl][Fe-]([Cl])([Cl])[Br] [MIL 4b] | I^e (Insoluble at 0.25% (w/v)) | 5.37 |  |  |  |
| CCCCCCCCCCCCCCCCn1c[n+](CCCCCCCCCCCC[n+]2cn(CCCCCCCCCCCCCCCC)c3ccccc32)c2ccccc21.O=S(=O)([N-]S(=O)(=O)C(F)(F)F)C(F)(F)F.[Cl][Fe-]([Cl])([Cl])[Br] [MIL 6] | Id | 5.69 | ~40 |  |  |
| CCCCCCCCCCCCCCCCn1c[n+](CCCCCCCCCCCC[n+]2cn(CCCCCCCCCCCCCCCC)c3ccccc32)c2ccccc21.[Cl][Fe-]([Cl])([Cl])[Br].[Cl][Fe-]([Cl])([Cl])[Br] [MIL 6c] | I^e (Insoluble at 0.25% (w/v)) | 7.58 |  |  |  |
| O=S(=O)([N-]S(=O)(=O)C(F)(F)F)C(F)(F)F.[Cl][Fe-]([Cl])([Cl])[Br].c1ccc(Cn2c[n+](CCCCCCCCCCCC[n+]3cn(Cc4ccccc4)c4ccccc43)c3ccccc32)cc1 [MIL 7] | I^d (Insoluble at 0.1% (w/v)) | 5.45 |  |  |  |
| CCCCCCCCCCCCCCCCn1c[n+](CCCCCCCCCCCC[n+]2ccn(Cc3ccccc3)c2)c2ccccc21.O=S(=O)([N-]S(=O)(=O)C(F)(F)F)C(F)(F)F.[Cl][Fe-]([Cl])([Cl])[Br] [MIL 8] | I^d (Insoluble at 0.1% (w/v)) | 5.30 |  |  |  |
| CCCCCCCCSCCC[n+]1ccn(Cc2cc(Cn3cc[n+](CCCSCCCCCCCC)c3)cc(Cn3cc[n+](CCCSCCCCCCCC)c3)c2)c1.[Cl][Fe-]([Cl])([Cl])[Br].[Cl][Fe-]([Cl])([Cl])[Br].[Cl][Fe-]([Cl])([Cl])[Br] [MIL 11] | I^e (Insoluble at 0.25% (w/v)) | 11.76 |  |  |  |
| CCCCCCCCCCCCCC[P+](CCCCCC)(CCCCCC)CCCCCC.[Cl][Fe-]([Cl])([Cl])[Cl] [[P6,6,6,14+][FeCl4−], trihexyl(tetradecyl)phosphonium tetrachloroferrate(III), reference compound] |  |  | ~40 |  |  |
| benzyltrioctylammonium bromotrichloroferrate(III) [MIL 1] | I^d (Insoluble at 0.1% (w/v)) | 5.26 | 5.0 | I | 258 |
